Measured values published in patent US20130244255A1, “ANTIBODIES DIRECTED TO GPNMB AND USES THEREOF” (priority 2006, published 2013).
Entries after “also recorded” stand apart in the source; their conditions may differ. Where a name gives a salt, the structure may show the parent alone. Where a SMILES comes first, the peptide text is derived from it. [ ]: non-standard residue; d: D form. The star is where a group is joined. Dolaproine = CO[C@@H]([C@@H]1CCCN1)[C@@H](C)C(=O)O; Dil = CC[C@H](C)[C@H](NC)[C@@H](CC(=O)O)OC; X1 = C[C@@H](N*)[C@@H](O)c1ccccc1; NMeV = CN[C@H](C(=O)O)C(C)C

How the values were obtained:
UACC-62 = experiment: Anti-GPNMB antibody mediated indirect cell killing (saporin secondary conjugate, colony count); format: cell-based, human; conditions: 5-FU 600 uM; antibodies with saporin toxin-conjugated secondary antibody
Method: UACC-62, a GPNMB antigen expressing cell line, and TK10, a non-expressing cell line were plated onto flat bottom 96-well tissue culture plates (Becton Dickinson, Franklin Lakes, N.J., USA) at a density of 3000 cells per well. Once the cells reached ˜25% confluency, 100 ng/well of secondary antibody-toxin conjugate (goat anti-human IgG-saporin; Advanced Targeting Systems, San Diego, USA, HUM-ZAP; cat #IT-22) was added. Anti-GPNMB MAbs 2.10.2, 2.22.1, 1.15.1 or isotype control mAb (pK16.3) were added to each well at a final concentration of 10 or 50 μg/mL. An anti-EGFR monoclonal antibody (MS-269-PABX, NeoMarkers, Fremont, Calif., USA) was used as a positive primary antibody control. Chemotherapy reagent 5-FU at 600 uM was used as a positive reagent control. On day 5, the cells were trypsinized, transferred to 6-well tissue culture plates and incubated at 37° C. Plates were examined daily and between 8-10 days, all plates were Giemsa stained and colonies were counted.

[1] = tested on: SK-MEL-2 human melanoma xenograft; experiment: SK-MEL-2 human melanoma xenograft in athymic mice; format: in vivo
Method: Five- to 6-week old athymic mice (CD-1 nu/nu females), used for human tumor xenografts, were obtained from Harlan Laboratories (Indianapolis, Ind.). Animals were housed in specific pathogen-free conditions, according to the guidelines of the Association for Assessment and Accreditation of Laboratory Animal Care International (AAALAC International). Test animals were provided pelleted food and water ad libitum and kept in a room with conditioned ventilation (HVAC), temperature (22°±2° C.), relative humidity (55%±15%), and photoperiod (12 hr). All studies were carried out with approved institutional animal care and use protocols.
(§1) The tumor inhibitory activity of the CR011-MMAE immunoconjugate was measured in an anti-tumor xenograft model using athymic mice, according to published methods (see Geran et al., Cancer Chemother. Rep. 3:1-104 (1972)). […] When tumors became established (10-20 days), the animals were pair-matched into groups (n=6 mice/group), and treatment was administered by intravenous injection (tail vein).
(§2) The SK-MEL-2 human melanoma (ATCC #HTB-68) was derived from a metastatic site (skin of thigh) of a person with malignant melanoma, and the SK− MEL-5 human melanoma (ATCC #HTB-70) was derived from a metastatic site (axillary lymph node) of a person with malignant melanoma (see Fogh et al., J. Natl. Cancer Inst. 59: 221-226 (1977)). Both cell lines were obtained from the American Type Culture Collection.
(§3) The effects of treatment were monitored by repetitive tumor measurements across 2 diameters with Vernier calipers; tumor size (in mg) was calculated using a standard formula, (W^2×L)/2, assuming a specific gravity of 1.0. Tumor size and body weights were assessed twice weekly. Mice were examined daily, however, and moribund animals were humanely euthanized if clinical indications of excessive pain or distress were noted (i.e., prostration, hunched posture, paralysis/paresis, distended abdomen, ulcerations, abscesses, seizures, and/or hemorrhages) Animals with tumors exceeding 2,000 mg were removed from the study and euthanized humanely.
No apparent or statistically significant anti-tumor effects were observed. […] In preliminary studies, tumor regression was complete and was not followed by regrowth of the tumor despite lengthy observation periods (up to 200 days).

[2] = tested on: SK-MEL-5 human melanoma xenograft; experiment: SK-MEL-5 human melanoma xenograft in athymic mice; format: in vivo
Method: as §1, §2, §3
Soon after the commencement of treatment with paclitaxel, however, significant tumor growth inhibition was observed (P≦0.039) at day 3 after treatment began, and this anti-tumor effect continued, producing 100% growth inhibition (stasis). The responses of SK-MEL-5-bearing test animals to vinblastine and paclitaxel were short-lived. After cessation of treatment at the maximally tolerated doses, tumors resumed rapid, progressive growth.

CG56972/GPNMB = target: T1, CG56972/GPNMB (Homo sapiens, UniProt Q14956); experiment: FACS binding of CR011 IgG1 and IgG2 on SK-MEL-2 cells
T1 construct: endogenous in cells; host or cells: UACC-62 and a panel of melanoma lines (A5); SK-MEL-2 (A52); SK-Mel-5 (A63)
T1 sequence (Q14956 23-572): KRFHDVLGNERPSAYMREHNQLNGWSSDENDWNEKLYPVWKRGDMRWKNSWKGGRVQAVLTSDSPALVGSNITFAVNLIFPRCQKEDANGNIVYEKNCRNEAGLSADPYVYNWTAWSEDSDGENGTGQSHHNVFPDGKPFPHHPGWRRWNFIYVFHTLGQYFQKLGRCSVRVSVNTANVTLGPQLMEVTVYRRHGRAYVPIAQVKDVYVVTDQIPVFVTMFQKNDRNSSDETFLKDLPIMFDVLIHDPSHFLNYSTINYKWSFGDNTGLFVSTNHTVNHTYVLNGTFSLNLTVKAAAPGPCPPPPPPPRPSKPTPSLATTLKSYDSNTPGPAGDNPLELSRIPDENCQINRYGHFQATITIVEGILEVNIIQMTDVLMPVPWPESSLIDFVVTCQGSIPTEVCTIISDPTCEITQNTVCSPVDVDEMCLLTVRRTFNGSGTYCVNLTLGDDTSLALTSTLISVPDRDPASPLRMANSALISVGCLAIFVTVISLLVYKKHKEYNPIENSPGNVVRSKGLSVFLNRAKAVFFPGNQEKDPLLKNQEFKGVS

SK-Mel-2 cells = experiment: ADCC assay with human PBMC (DELFIA EuTDA cytotoxicity); format: cell-based; conditions: 30 to 100 fold PBMC; 2, 5, 10 μg/200 μl mAb
Method: Human PBMC were isolated from whole blood using a Ficoll-Plaque. Briefly, in a 50 mL tube, 15 mL of PBS was added to 20 mL of whole blood which was underlayed with 10 mL Ficoll-Plaque and the tube was centrifuged at 2000 RPM. Mononuclear cells were collected from the interface and washed 3 times with PBS. The ADCC assay was carried out in a 96 well plate using a fluorescence assay for cytolysis from Perkin-Elmer (DELFIAEuTDA Cytotoxic assay). The procedure is based on loading target cells with a fluorescence enhancing ligand (BATDA, bis (acetoxymethyl) terpyridine—dicarboxylate). The hydrophic ligand penetrates the membrane quickly. Within the cell the esterbonds are hydrolyzed to form a hydrophilic ligand (TDA, terpyridine—dicarboxylic acid) which can no longer pass through the membrane. After cytolysis the ligand is released and introduced to the Europium solution. The europium and the ligand form a highly fluorescent and stable chelate (EuTDA). Fluorescence intensity are recorded using excitation and emission wavelengths as λex=340 nm and λem=613 nm, respectively.

## O=c1[nH]cc(F)c(=O)[nH]1 [Mab 5-FU]
UACC-62
  effect on UACC-62 cells (in words): complete killing

## CC(=O)O[C@H]1C(=O)[C@@]2(C)[C@H]([C@H](OC(=O)c3ccccc3)[C@]3(O)C[C@H](OC(=O)[C@H](O)[C@@H](NC(=O)c4ccccc4)c4ccccc4)C(C)=C1C3(C)C)[C@]1(OC(C)=O)CO[C@@H]1C[C@@H]2O [Paclitaxel, paclitaxel, reference compound]
[1]; paclitaxel i.v. 24 mg/kg q2d×4, for approximately 2 weeks after treatment commenced
  growth inhibition (tumor stasis): 100%
[2]; paclitaxel 24 mg/kg i.v. q2d×4
  growth inhibition (stasis): 100%
[2]; paclitaxel group
  long-term, tumor-free survivor: One

## CC[C@]1(O)C[C@@H]2CN(CCc3c([nH]c4ccccc34)[C@@](C(=O)OC)(c3cc4c(cc3OC)N(C)[C@H]3[C@@](O)(C(=O)OC)[C@H](OC(C)=O)[C@]5(CC)C=CCN6CC[C@]43[C@@H]65)C2)C1 [Vinblastine, vinblastine sulfate, reference compound]
[1]; i.v., CR011-vcMMAE 20, 10, 5 or 2.5 mg/kg q4d×4, vinblastine […] q4d×4
  anti-tumor effect (in words): very slight, but not significant, anti-tumor effect
[2]; i.v., CR011-vcMMAE 1.25 to 20 mg/kg q4d×4, vinblastine […] q4d×4
  anti-tumor effect (in words): noticeable, but not significant tumor growth inhibition

## CC[C@H](C)[C@@H]([C@@H](CC(=O)N1CCC[C@H]1[C@H](OC)[C@@H](C)C(=O)N[C@H](C)[C@@H](O)c1ccccc1)OC)N(C)C(=O)[C@@H](NC(=O)[C@@H](NC)C(C)C)C(C)C [monomethylauristatin E, reference compound] (H-[NMeV]V[Dil][Dolaproine]-X1)
[1]; doses identical to that contained in the intact immunoconjugate (5 mg/kg q4d×4)
  tumor growth inhibition by components of the immunoconjugate (in words): lack of responses; also recorded: lack of tumor growth inhibition

## CR011 IgG1 mAb: CR011 mAb 1.15.1 switched to IgG1 constant region; heavy chain SEQ ID NO: 395
CG56972/GPNMB
  FACS shift on SK-MEL-2 cells vs isotype control mAbs: comparable FACS shifts
SK-Mel-2 cells
  cytolysis of SK-MEL-2 cells (ADCC): caused cytolysis of SK-MEL-2 cells in a dose dependent manner
